Patent US12458614B2, “Therapeutic agents for improved mobility and cognitive function and for treating neurodegenerative diseases and lysosomal storage disorders” (priority 2017, dated 2025)

Assays:
NPC patients = test: Clinical severity score (CSS) and annual severity increment score (ASIS) in ten NPC patients; type: in vivo, human; conditions: 4.5 g/day
Description: An NPC patient's severity may be quantified by assigning a clinical severity score (CSS), which assesses various parameters of the disease and gives each parameter a score out of 5 (higher score=greater severity). See Yanjanin et al., “Linear Clinical Progression, Independent of Age of Onset, in Niemann-Pick Disease, Type C,” Am J Med Genet Part B 153B:132-140. In an untreated patient, one can typically predict how the CSS will change over time in an individual, as disease progression appears to be linear. For example, if Patient A moves from a CSS of 8 to a CSS of 12 between month 0 and month 12, it can be predicted that by month 36, the patient will have a CSS of 20. The annual severity increment score (ASIS) quantities the annual rate of change in the CSS, calculated by dividing the CSS of a patient by the patient's age. […]
Ten NPC patients were administered acetyl-leucine at 4.5 g/day over long durations. A CSS was determined at baseline, and at various time points, for eye movement, ambulation, speech, swallow, fine motor skills, cognition, memory, and seizures. An overall CSS was calculated at baseline and at each such time point by adding the individual CSS values for each parameter (eye movement, ambulation, etc.).
The ASIS at baseline and each time point was calculated using each patient's CSS and age at the time of assessment. […]

[1] = system: patients with ataxia telangiectasia; test: Case studies, ataxia telangiectasia (SARA, SCAFI, video-oculography); type: in vivo, human
Description: For example, to evaluate overall neurological status, mDRS, a four-domain scale (ambulation, manipulation, language and swallowing), may be applied. Cerebellar function may be evaluated using SARA, an eight-item clinical rating scale (gait, stance, sitting, speech, fine motor function and taxis; range 0-40, where 0 is the best neurological status and 40 the worst), and SCAFI, comprising the 8-m-Walking-Time (8MW; performed by having patients walking twice as quickly as possible from one line to another excluding turning), 9-Hole-Peg-Test (9HPT) and the number of “PATA” repetitions over 10 s. Subjective impairment and quality of life may be evaluated using the EQ-5D-5L questionnaire and VAS. To assess ocular motor function, 3-dimensional videooculography (EyeSeeCam) may be used to measure the peak velocity of saccades, gain of smooth pursuit, peak slow phase velocity of gaze-evoked nystagmus (gaze-holding function), peak slow phase velocity of optokinetic nystagmus, and gain of horizontal vestibulo-ocular reflex. To evaluate the cognitive state, WAIS-R or WISC-IV, and MoCA, assessing different cognitive domains, including attention and concentration, executive functions, memory, language, visuoconstructional skills, conceptual thinking, calculations, and orientation with a maximum of 30 points and a cut-off score of 26, may be used. The skilled person will know how to perform these and other such tests.
After one month of treatment, the patient was re-evaluated. […] Examination indicated a Scale for Assessment and Rating of Ataxia (SARA) score of 15.5/40. Results from the patient's Spinocerebellar Ataxia Functional Index (SCAFI) analysis were: • Mean 8-meters Walking Test (8MW): 18.5 s • MW 9-Hole Pegboard Test Dominant (9HPTD) (right): 77.9 s • MW 9-Hole Pegboard Test Non-Dominant (9HPTND): 101.3 s • MW PATA Word Test: 13 • Visual analog scale (as evaluated by the patient): 85
After one month of treatment, the patient was re-evaluated. […] Examination indicated a Scale for Assessment and Rating of Ataxia (SARA) score of 23.5/40.
After slightly over 7 months of treatment, the patient was re-evaluated. […] Examination indicated a Scale for Assessment and Rating of Ataxia (SARA) score of 21.5/40.
After slightly over 1 month of treatment, the patient was re-evaluated. […] The patient also reported that drinking was easier and no longer needed a straw. […] Examination indicated a Scale for Assessment and Rating of Ataxia (SARA) score of 18.5/40.
After about 1 month of treatment, the patient was re-evaluated. […] On medication, they were able to walk with only holding the caregiver's hand.
The patient was evaluated after one month and six months of treatment, respectively. […] The patient, however, was suffering from anxiety, which would be expected to negatively influence the response.

[2] = system: Mucopolysaccharidosis Type IIIB (MPS IIIB) patient fibroblasts; test: Lysosomal volume via LysoTracker; type: cell-based, human; conditions: 1 mM, 6 days
[3] = system: patients with downbeat nystagmus; test: Case studies, downbeat nystagmus; type: in vivo, human
[4] = A-T Patient 3, after slightly over 7 months
[5] = A-T Patient 4, after slightly over 1 month
[6] = A-T Patient 5, after about 1 month
[7] = A-T Patient 5, after almost 7 months
[8] = DBN Patient 1, approximately 14 weeks

SMILES: CC(=O)NC(CC(C)C)C(=O)O (racemic) [acetyl-DL-leucine]
- Change in ASIS during treatment relative to baseline (NPC patients): all ten patients showed a reduction in ASIS
- Change in overall CSS over the course of the experiment (NPC patients): none of the ten patients showed an overall increase in CSS
- Video-oculography (summary) ([1]; A-T Patient 1, after one month): significant improvement of fixation stability and decrease of intensity of downbeat-nystagmus
- Caregiver report ([1]; A-T Patient 1, after one month, 5 g/day): improvement of speech and gait
- 9-Hole Pegboard Test Dominant (9HPTD) ([1]; A-T Patient 2, after one month): 300 s
- Mean 8-meters Walking Test (8MW) ([1]; A-T Patient 2, after one month): not able to perform without support
- Video-oculography (summary) ([1]; A-T Patient 2, after one month): improvement of fixation stability and significant improvement of downbeat-nystagmus intensity
- Caregiver report ([1]; A-T Patient 2, after one month, 5 g/day): improvement of fine motor function, hand tremor, and speech
- Mean 8-meters Walking Test (8MW) [1, 4]: not able to perform
- Video-oculography (summary) [1, 4]: significant improvement of fixation stability and decrease of intensity of gaze-holding nystagmus at all positions
- Caregiver and patient report ([1]; A-T Patient 3, after slightly over 7 months, 5 g/day): general improvement of well-being
- Mean 8-meters Walking Test (8MW) [1, 5]: not able to perform
- Video-oculography (summary) [1, 5]: general improvement of fixation stability and decrease of intensity of spontaneous and gaze-holding nystagmus at all positions
- Patient and family report ([1]; A-T Patient 4, after slightly over 1 month, 5 g/day): improvement in handwriting
- Body weight gained [1, 6]: 1.5 kg
- Mean 8-meters Walking Test (8MW) [1, 6]: not able to walk without support
- Gait (reported by parent) ([1]; A-T Patient 5, after about 1 month, 5 g/day): significant improvement of stability of the gait
- Further body weight gained [1, 7]: 3 kg
- Gait (reported by parent) [1, 7]: significantly more stable gait
- Clinical re-evaluation ([1]; A-T Patient 5, after slightly over a year): improved social interaction, activity, and agility
- Adverse observation ([1]; A-T Patient 5, after slightly over a year, suspected infantile migraine): repeatedly occurring frontal localized pain with vomiting in the morning
- Clinical evaluation ([1]; A-T Patient 6, after one month, 1.5 g/day then 3 g/day): increased fine motor skills with reduced hand tremor
- Clinical evaluation ([1]; A-T Patient 6, after six months): stable general conditions, stable gait and stance, and improved handwriting
- LysoTracker fluorescence vs untreated disease fibroblasts [2]: statistically significant reduction in LysoTracker fluorescence toward control level
- Effect of temporary suspension of the medication ([3]; DBN Patient 1): considerable deterioration
- Side-effects ([3]; DBN Patient 1, 5 gram per day): no side-effects resulted
- Benefit (patient report) ([3]; DBN Patient 1, after 10 days, 3 g then 5 gram per day): significant benefit
- Nystagmus (clinical examination) [3, 8]: reduction of the nystagmus
- Postural sway (posturography) [3, 8]: reduction of postural sway
- Oscillopsia / reading and writing ([3]; DBN Patient 1, approximately 14 weeks after starting): reduced oscillopsia
- Gait ([3]; DBN Patient 2, 3 g/day then 5 g/day): improvement of gait
- Downbeat nystagmus (video-oculography) ([3]; DBN Patient 2, on treatment): improved
